Data set [1] relates to human microvessels of healthy donors. Kind of data set: Mechanism of FMD (L-NAME / PEG-Catalase) in microvessels from healthy (non-CAD) donors. As for the experimental part: (§1) Live human microvessels were dissected from adipose from individuals with clinically confirmed coronary artery disease (CAD). Vessels were treated with nucXTERT in the presence of either vehicle or L-NAME or PEG-Catalase. Response to pressure gradient (flow) stimulus was evaluated. Microvessels from the adipose of healthy human donors was treated with either vehicle or mitoXTERT with or without NG-nitro-L-arginine methyl ester (L-NAME) or PEG-Catalase. The ability of the vessels to dilate in response to a pressure gradient (flow) was assessed.
FIGS. 7A-7C show dose titration of PEGylated nucXTERT-E in isolated vessel studies. nucXTERT with S→E substitution was PEGylated at the C-terminus to increase bio stability and cell permeability. Effective doses from 10 μM to 1 nM were tested. PEGylated peptide could be titrated down to 1 nM with vascular protective effects. […] N=3-4.
(§2) Dependence of vessels on NO versus hydrogen peroxide signaling in dilation was assessed using the pharmacologic agents Nw-nitro-L-arginine methyl ester (L-NAME; 100 μmol/L) and polyethylene glycol-catalase (PEG-catalase; 500 U/mL), respectively, where described.

For data set [2], the system named is human microvessels. Description: Flow-mediated dilation (FMD) of isolated human microvessels with or without ANG II challenge. Conditions: for protection of flow-mediated vasodilation from ANG II: overnight pre-treatment, ANG II 10 nM 30 min; for baseline vessel constriction, % of maximum diameter: after 10 minutes of ET-1 treatment. As for the experimental part: (§3) Microvessels were dissected from surgical discard tissues, predominantly consisting of adipose. Only vessels with a diameter of less than 300 micrometers were selected for further study. All microvessels were obtained from discarded surgical tissues, in accordance with an Institutional Review Board approved protocols (PRO00000114, PRO00010828, PRO00001094) at the Medical College of Wisconsin, Milwaukee, Wis.
(§4) After dissection, vessels were incubated overnight in complete endothelial cell media, supplemented with 5% fetal bovine serum (Lonza) with or without peptides as described. Following overnight incubation, peptides were washed out and vessels were cannulated and transferred to physiological salt solution. A video microscopy setup enabled monitoring of vessels in real time. Vessels were pre-constricted with endothelin-1 (ET-1) at a dose range of 0.1-1 nM. Only vessels capable of constricting at least 20% from baseline were included in the study. Flow-mediated dilation (FMD) and Ach-induced dilation were then evaluated, followed by evaluation of endothelium-independent dilation to papaverin. After establishing this baseline, vessels were pre-constricted again with ET-1 and dilator curves repeated in the presence of Angiotensin II (ANG II), as described below.
FMD was evaluated by adjusting the heights of two reservoirs in equal and opposite directions to generate flow by altering vessel central pressure. After each change in pressure gradient, vessel diameter was measured and assessed using video microscopy. Prior to measuring FMD, all vessels studied were pre-constricted using endothelin-1.
(§5) Baseline vessel parameters, including ability to dilate in response to FMD, as described above were assessed. Following assessment, vessels were treated with ANG II at a final concentration of 10 nM for 30 minutes before FMD and response to ACh was re-assessed.

The test system of data set [3] is human microvessels. Description: Uptake of 5-FAM labeled peptide by isolated human microvessels (microscopy). Particulars: 10 uM, 8 h. As for the experimental part:
(§6) FIGS. 2A-2B. (A) Dissected human microvessels are shown. The top panels are brightfield images, while the bottom three panels are images of the same vessels under laser excitation with a filter to visualize emission from 5-FAM. Vessels were treated with 5-FAM labeled peptide (nucXTERT-W) at a 10 uM concentration for 8 hours (h), or left untreated (control). (B) H1299 non-small cell lung carcinoma cells were seeded onto slides and treated with 0, 50, or 100 μM 5-FAM labeled nucXTERT-W for 8 h. DAPI=blue; 5-FAM labeled peptide=green.
Peptide synthesis was conducted by GeneMed Synthesis (San Antonio, Tex.). All peptide sequences were verified by mass spectrometry, and were only used at a purity of greater than 95%. Lyophilized peptides were stored at −20 degrees Celsius. Given the charge properties of the peptides used in these studies, phosphate buffered saline (PBS) was selected as the solvent of choice to dissolve all peptides used. […]
One of the first hurdles that required consideration when evaluating the ability of novel peptides to alter telomerase localization is their ability to be internalized by living tissues. nucXTERT was labeled with 5-carboxyfluorescein (5-FAM). Isolated human microvessels incubated with the 5-FAM labeled peptide were analyzed by microscopy. […]

The test system of data set [4] is H1299 non-small cell lung carcinoma cells. Description: Uptake of 5-FAM labeled peptide by H1299 cells (microscopy). In kind it is cell-based, human. Particulars: 50 or 100 μM, 8 h. As for the experimental part:
as §6
The NCI-H1299 cell line was used for the cell culture experiments described in this manuscript. Cells were cultured in RPMI (Invitrogen) supplemented with 10% fetal bovine serum (Sigma).
One of the first hurdles that required consideration when evaluating the ability of novel peptides to alter telomerase localization is their ability to be internalized by living tissues. nucXTERT was labeled with 5-carboxyfluorescein (5-FAM). Isolated human microvessels incubated with the 5-FAM labeled peptide were analyzed by microscopy. Robust signal is present in vessels pulsed with the peptide, while vessels not treated with peptide have no signal. […] Since peptide is taken up by vessels, it was possible to study the effect of peptide treatment on vessel physiology, using human microvessels as described in the methods. […]

For data set [5], the system named is human microvessels. Description: ACh-induced dilation of isolated human microvessels with or without ANG II challenge. Conditions: for protection of ACh-induced vasodilation from ANG II: overnight pre-treatment, ANG II 10 nM 30 min. On the procedure:
as §3, §4, §5

In data set [6] the test system is ANG II induced endothelial dysfunction. Description: In vivo ANG II infusion model of hypertension and endothelial dysfunction. Details: species or system mice. On the procedure: Mice were treated with commonly used stressors to induce hypertension and endothelial dysfunction. The fast pressor dose of ANG II (1000 ng/kg/min) was infused via osmotic mini-pump for 14 days. A subgroup of animals was co-treated with nucXTERT (30 μg/day via osmotic mini-pump) in addition to ANG II, for the same duration and using the same delivery system. Curves were compared to historic controls (vehicle). […] Smooth muscle-dependent dilation in response to vasodilator papaverin was not effected (data not shown). * P<0.05 vs. Vehicle one way ANOVA RM, N=5).
To test in vivo effects of nucXTERT mice were treated with commonly used stress to induce hypertension and endothelial dysfunction. The fast pressor dose of ANG II (1000 ng/kg/min) was infused via osmotic minipump for 14 days. A subgroup of animals was co-treated with nucXTERT (30 μg/day via osmotic mini pump) in addition to ANG II, for the same duration and using the same delivery system. Curves were compared to historic controls (vehicle). […] Smooth muscle dependent dilation to papaverin was not effected (data not shown).

In data set [7] the test system is human microvessels from individuals with coronary artery disease (CAD). Kind of data set: Mechanism of FMD (L-NAME / PEG-Catalase) in microvessels from donors with coronary artery disease. Conditions: vessels pretreated with peptide. On the procedure:
as §1, §2
At baseline, these vessels respond to vasodilatory stimuli through the use of H2O2 as a signaling mechanism to enable dilation. Treatment of vessels with PEG-Catalase, a scavenger of H2O2 effectively attenuates vasodilation. […] In vessels from subjects with CAD, H2O2 represents the dominant vasodilator.

Where [8] appears, read: 30 μg/day via osmotic mini pump, 14 days, ANG II 1000 ng/kg/min.

Where a SMILES comes first, the peptide text is derived from it. Primed or numbered codes have the meaning given here. The star is where a group is joined. PEG12′ = C-terminal PEG12 polyethylene glycol (PEGylation) moiety, followed by a C-terminal amide; 5FAM = O=C1OC2(c3ccc(O)cc3Oc3cc(O)ccc32)c2ccc(C(=O)*)cc21

“Ac-CGGRRRGGEASRSLPLPKRPRR-peg12-amide (Ac-CGGRRRGGEASRSLPLPKRPRR-{PEG12′-NH2}) [PEGylated peptide, nucXTERT with S→E substitution PEGylated at the C-terminus]”: in data set [1] (non-CAD vessels), the “mechanism of FMD in non-CAD vessels (L-NAME inhibitable)” value is recorded as “did not alter”. Further, in the data set on human microvessels [2] (doses from 10 μM to 1 nM tested), the “lowest dose with vascular protective effects (dose titration)” value is 1 nM. Besides, the “protection of flow-mediated vasodilation from ANG II” value in the data set on human microvessels [2] is given as “protected against ANG II induced endothelial dysfunction”.

As to `CC(C)C[C@H](NC(=O)[C@H](CO)NC(=O)[C@H](CCCNC(=N)N)NC(=O)[C@H](CO)NC(=O)[C@H](C)NC(=O)[C@H](CO)NC(=O)CNC(=O)CNC(=O)[C@H](CCCNC(=N)N)NC(=O)[C@H](CCCNC(=N)N)NC(=O)[C@H](CCCNC(=N)N)NC(=O)c1ccc2c(c1)C(=O)OC21c2ccc(O)cc2Oc2cc(O)ccc21)C(=O)N1CCC[C@H]1C(=O)N[C@@H](CC(C)C)C(=O)N1CCC[C@H]1C(=O)N[C@@H](CCCCN)C(=O)N[C@@H](CCCNC(=N)N)C(=O)N1CCC[C@H]1C(=O)N[C@@H](CCCNC(=N)N)C(=O)N[C@@H](CCCNC(=N)N)C(=O)O` [5-FAM labeled peptide] (5FAM-RRRGGSASRSLPLPKRPRR-OH; N-terminus and C-terminus assumed), the “5-FAM signal in vessels pulsed with peptide (uptake by living tissue)” value with human microvessels [3] is “Robust signal”. Besides, the “uptake of labeled peptide into cells” value in data set [4] was “effectively traffics into the cell”.

In the case of “MPRAPRCRAVRSLLRSHYRE (listed as Homo sapiens) [mitoXTERT, decoy peptide containing regions of the telomerase MLS]”, the “mechanism of dilation in healthy vessels” value in data set [1] (treated with peptide, with or without L-NAME or PEG-Catalase) is on record as “from NO-mediated dilation to H2O2-dependent dilation”. In the data set with human microvessels [5], the “protection of ACh-induced vasodilation from ANG II” value is reported as “no protection of the endothelium from ANG II stress”. The “protection of flow-mediated vasodilation from ANG II” value in the data set on human microvessels [2] is recorded as “no protection of the endothelium from ANG II stress”.

“RRRGGAASRSLPLPKRPRR (phospho-deficient nucXTERT-A)”: the “protection of ACh-induced vasodilation from ANG II” value with human microvessels [5] is given as “does not protect vessels from attenuation of vasodilator capacity”. Moreover, in the data set with human microvessels [2], the “baseline vessel constriction, % of maximum diameter” value turned out to be 53±12% and the “protection of flow-mediated vasodilation from ANG II” value is “does not protect vessels from attenuation of vasodilator capacity”.

In the case of “RRRGGEASRSLPLPKRPRR (phosphomimetic nucXTERT-E) [phosphomimetic containing a glutamic acid substitution at position 227]”, in the data set on human microvessels [5], the “protection of ACh-induced vasodilation from ANG II” value is “prevents ANG II-induced endothelial dysfunction”. Moreover, in the data set with human microvessels [2], the “baseline vessel constriction, % of maximum diameter” value worked out at 48±18% and the “protection of flow-mediated vasodilation from ANG II” value was “prevents ANG II-induced endothelial dysfunction”.

As for `C/C(=C\C(=O)Nc1ccccc1C(=O)O)c1ccc2ccccc2c1` [BIBR1532, reference compound], the “vasodilation in response to acetylcholine” value in the data set on human microvessels [5] (overnight treatment, no ANG II) was “effectively eliminates vasodilation in response to acetylcholine”. For the same compound, the “vasodilation in response to flow stimulus” value with human microvessels [2] (overnight treatment, no ANG II) was “continue to dilate in response to flow stimulus”.

On to “RRRGGSASRSLPLPKRPRR (listed as Homo sapiens) [nucXTERT]”, for which, in data set [6] (setting [8]), the “FMD under ANG II” value was “prevented onset of ANG II induced endothelial dysfunction” and the “agonist (ACh) induced endothelium-dependent dilation under ANG II” value is given as “prevented onset of ANG II induced endothelial dysfunction”. In addition, the “smooth muscle dependent dilation to papaverin” value in data set [6] (data not shown) is reported as “not effected”. Further, in data set [7], the “effect of PEG-Catalase on dilation responses in CAD vessels” value is recorded as “no longer inhibits dilation responses” and the “main mechanism of FMD in CAD vessels” value is given as “NO is restored as the main mechanism of FMD”. In addition, the “protection of ACh-induced vasodilation from ANG II” value with human microvessels [5] is “not impacted by ANG II treatment”. Moreover, the “protection of flow-mediated vasodilation from ANG II” value in the data set with human microvessels [2] is reported as “not impacted by ANG II treatment”.

These data come from patent US10858397B2, “Peptide inhibitors of telomerase translocation and therapeutic uses thereof” (THE MEDICAL COLLEGE OF WISCONSIN, INC., priority 2015, dated 2020).
